According to patent US8450300B2 (priority 2009, dated 2013):
Where two headings read alike, the source gives them in different places.

Experiments:
[1] = Dose escalation study, single/multiple dose and loading dose regimens: pharmacokinetics; assay type: in vivo, human; details: for concentration at 7 days: after 7 days of dosing; for concentration at 7 days / concentration at 24 h: read-out: mean trough plasma concentration
Method: The pharmacokinetics (PK), safety, and tolerability of single and multiple doses of CEM-102 (sodium fusidate) were evaluated in a single-center, Phase 1, double-blind, randomized, placebo-controlled, dose-escalating study in 32 healthy adult subjects enrolled in 4 dosage groups (550, 1100, 1650, and 2200 mg). In each cohort, six subjects were to receive CEM-102 and two were to receive placebo in a single dose (Period 1) and then multiple doses BID for a total of 11 doses over 5.5 days (Period 2). The two dosing periods were separated by a seven-day washout period between the single dose in Period 1 and the first dose in Period 2.
Dosing proceeded as planned for Cohorts 1 to 3; however, Cohort 4 received only the single dose of 2200 mg (Period 1), because dose-limiting gastrointestinal intolerance was observed after multiple doses of 1650 mg BID in Cohort 3. Period 2 for Cohort 4 evaluated an initial loading dose regimen, and a second loading dose regimen was evaluated in an additional cohort (Cohort 5) per a protocol amendment.
The protocol was amended for assessment of the safety, tolerability, and PK of front-loaded dose regimens comprised of a higher dose of CEM-102 on Day 1 followed by lower doses for the subsequent 6.5 days. All loading dose regimens employed multiple doses lower than the maximum tolerated dose (MTD) established in the first part of the study (1650 mg administered as multiple doses).
The loading dose regimens assessed were 1100 mg BID on Day 1 and 550 mg BID on the following 6.5 days in Period 2 of Cohort 4 and 1650 mg BID on Day 1 and 825 mg BID on the following 6.5 days in Cohort 5.

[2] = tested on: methicillin-resistant S. aureus (MRSA) strain USA 300; test: Hollow fiber pharmacodynamic model, resistance potential; assay type: cell-based
Method: A hollow fiber model was used to evaluate CEM-102 resistance potential in methicillin-resistant S. aureus (MRSA) strain USA 300 (Network of Antimicrobial Resistance in Staphylococcus aureus (NARSA), Chantilly, Va.). USA 300 is a highly virulent strain of MRSA and is the most common community-associated MRSA isolate in the USA. MIC values were determined in accordance with Clinical and Laboratory Standards Institute (CLSI).
The hollow fiber model comprised a two-compartment hollow fiber model (Louie et al. Antimicrob Agents Chemother 52:2486-2496(2008)) consisting of a volume of 15 mL in the central compartment, with multiple ports for the removal of broth, delivery of antibiotics, and collection of bacterial and antimicrobial samples. […] All experiments were performed in duplicate.
Hollow fibers contain 15 ml of media was prepared and inoculated with 10^6 colony forming units (CFU)/mL USA 300 bacteria. One of three different dosing regimens of […] was then applied to the fibers: (1) […] q12h; (2) 1200 mg/ml×2, followed by […], q12h; (3) 1500 mg/ml×2, followed by […], q12h.

[3] = human, in vivo, 550 mg, Period 1 Day 1, single dose 550 mg
[4] = human, in vivo, 1100 mg BID loading dose then 550 mg BID
[5] = human, in vivo, 1100 mg, Period 1 Day 1, single dose 1100 mg
[6] = human, in vivo, 1650 mg BID loading dose then 825 mg BID
[7] = human, in vivo, 1650 mg, Period 1 Day 1, single dose 1650 mg
[8] = human, in vivo, 2200 mg, Period 1 Day 1, single dose 2200 mg

## CC(=O)O[C@H]1C[C@@]2(C)[C@@H](C[C@@H](O)[C@H]3[C@@]4(C)CC[C@@H](O)[C@@H](C)[C@@H]4CC[C@@]32C)/C1=C(\CCC=C(C)C)C(=O)O [CEM-102, Sodium fusidate]
[1]; Mean AUC(0-12) Day 6/Mean AUC(0-inf) Day 1, 550 mg
  AUC(0-12) accumulation ratio: 2.61
[1]; Mean AUC(0-12) Day 6/Mean AUC(0-inf) Day 1, 1100 mg
  AUC(0-12) accumulation ratio: 2.30
[1]; Mean AUC(0-12) Day 6/Mean AUC(0-inf) Day 1, 1650 mg
  AUC(0-12) accumulation ratio: 1.83
[1]; Mean Cmax Day 6/Mean Cmax Day 1, 550 mg
  Cmax accumulation ratio: 3.89
[1]; Mean Cmax Day 6/Mean Cmax Day 1, 1100 mg
  Cmax accumulation ratio: 3.89
[1]; Mean Cmax Day 6/Mean Cmax Day 1, 1650 mg
  Cmax accumulation ratio: 3.18
[1]; Period 1 Day 1, single dose 550 mg
  Kel, apparent first-order terminal elimination rate constant, mean: 0.0564 h⁻¹
[1]; Period 1 Day 1, single dose 1100 mg
  Kel, apparent first-order terminal elimination rate constant, mean: 0.0617 h⁻¹
[1]; Period 1 Day 1, single dose 1650 mg
  Kel, apparent first-order terminal elimination rate constant, mean: 0.0498 h⁻¹
[1]; Period 1 Day 1, single dose 2200 mg
  Kel, apparent first-order terminal elimination rate constant, mean: 0.0500 h⁻¹
[1]; Period 2 Day 6, 550 mg BID
  Kel, mean: 0.0554 h⁻¹
[1]; Period 2 Day 6, 1100 mg BID
  Kel, mean: 0.0404 h⁻¹
[1]; Period 2 Day 6, 1650 mg BID
  Kel, mean: 0.0199 h⁻¹
[1]; human, in vivo, 550 mg
  Tmax: 3 h
[1]; [3]
  Cmax: 33.4 µg/mL
  Vd/F: 28.4 L
[1]; human, in vivo, 550 mg, Period 1 Day 1, single dose 550 mg, read-out: AUC(0-24), mean
  AUC(0-t): 242 µg·h/mL
[1]; human, in vivo, 550 mg, Period 1 Day 1, single dose 550 mg, read-out: T1/2, harmonic mean (converted)
  half-life: 12.3 h
[1]; human, in vivo, 550 mg, Period 1 Day 1, single dose 550 mg, read-out: Tmax, median
  Tmax: 2 h
[1]; human, in vivo, 550 mg, Period 2 Day 6, 550 mg BID
  Vd/F: 9.88 L
[1]; human, in vivo, 550 mg, Period 2 Day 6, 550 mg BID, 11 doses
  Cmax: 130 µg/mL
[1]; human, in vivo, 550 mg, Period 2 Day 6, 550 mg BID, read-out: AUC(0-12), mean
  AUC(0-t): 1150 µg·h/mL
[1]; human, in vivo, 550 mg, Period 2 Day 6, 550 mg BID, read-out: T1/2, harmonic mean (converted)
  half-life: 12.5 h
[1]; [4]
  concentration at 7 days: ~105 µg/mL
  concentration at 24 h: ~74 µg/mL
[1]; [5]
  Cmax: 72.2 µg/mL
  Vd/F: 16.9 L
[1]; human, in vivo, 1100 mg, Period 1 Day 1, single dose 1100 mg, read-out: AUC(0-24), mean
  AUC(0-t): 844 µg·h/mL
[1]; human, in vivo, 1100 mg, Period 1 Day 1, single dose 1100 mg, read-out: T1/2, harmonic mean (converted)
  half-life: 11.2 h
[1]; human, in vivo, 1100 mg, Period 2 Day 6, 1100 mg BID
  Vd/F: 12.7 L
[1]; human, in vivo, 1100 mg, Period 2 Day 6, 1100 mg BID, 11 doses
  Cmax: 281 µg/mL
[1]; human, in vivo, 1100 mg, Period 2 Day 6, 1100 mg BID, read-out: AUC(0-12), mean
  AUC(0-t): 2530 µg·h/mL
[1]; human, in vivo, 1100 mg, Period 2 Day 6, 1100 mg BID, read-out: T1/2, harmonic mean (converted)
  half-life: 17.1 h
[1]; human, in vivo, 1650 mg
  Tmax: 4 h
[1]; [6]
  concentration at 7 days: ~200 µg/mL
  concentration at 24 h: ~150 µg/mL
[1]; [7]
  Cmax: 102 µg/mL
  Vd/F: 21.1 L
[1]; human, in vivo, 1650 mg, Period 1 Day 1, single dose 1650 mg, read-out: AUC(0-24), mean
  AUC(0-t): 1260 µg·h/mL
[1]; human, in vivo, 1650 mg, Period 2 Day 6, 1650 mg BID
  Vd/F: 34.8 L
[1]; human, in vivo, 1650 mg, Period 2 Day 6, 1650 mg BID, 11 doses
  Cmax: 324 µg/mL
[1]; human, in vivo, 1650 mg, Period 2 Day 6, 1650 mg BID, read-out: AUC(0-12), mean
  AUC(0-t): 3290 µg·h/mL
[1]; human, in vivo, 1650 mg, Period 2 Day 6, 1650 mg BID, read-out: T1/2, harmonic mean (converted)
  half-life: 31.6 h
[1]; human, in vivo, 2200 mg
  CL/F, mean: 0.924 L/h
  half-life: 13.9 h
[1]; [8]
  Cmax: 128 µg/mL
  Vd/F: 19.2 L
[1]; human, in vivo, 2200 mg, Period 1 Day 1, single dose 2200 mg, read-out: AUC(0-24), mean
  AUC(0-t): 1690 µg·h/mL
[1]; human, in vivo, 2200 mg, Period 1 Day 1, single dose 2200 mg, read-out: Tmax, median
  Tmax: 6 h
[1]; human, in vivo, Period 1 Day 1, single dose 550 mg
  AUC(0-inf): 441 µg·h/mL
[1]; human, in vivo, Period 1 Day 1, single dose 1100 mg
  AUC(0-inf): 1100 µg·h/mL
[1]; human, in vivo, Period 1 Day 1, single dose 1650 mg
  AUC(0-inf): 1800 µg·h/mL
[1]; human, in vivo, Period 1 Day 1, single dose 2200 mg
  AUC(0-inf): 2650 µg·h/mL
[2]; 1200 mg×2 then 600 mg q12h
  reduction of bacterial counts: 2 logs
[2]; 1500 mg×2 then 600 mg q12h
  time until which resistance was suppressed: > 72 h
